# Measured values: patent US5650525A, “1,2-dioxetane derivatives, intermediates for syntheses thereof and methods of producing the intermediates” (priority 1994, dated 1997)
# Where a name gives a salt, the structure may show the parent alone.
# Tests used:
# [1] = Thermal stability: half-life by 1H NMR in methanol-d4 heated at 60° C. (Test Examples 1-2, 2-2); format: physicochemical; conditions: for half-life at 60° C.: 1 mg in methanol-d4 (0.35 ml), 1H NMR at intervals of 2 to 3 hours; for thermal stability compared with AMPPD: methanol-d4, 60° C., versus AMPPD
# Experimental: 1 mg of 3-isopropoxy-4,4-diisopropyl-3-(3'-phosphoryloxy)phenyl-1,2-dioxetane disodium salt (Compound [40]) synthesized in Example 26 was dissolved in methanol-d4 (0.35 ml), and the solution was heated at 60° C. in a thermostated bath, so that the solution was subjected to ^1 HNMR measurement at intervals of 2 to 3 hours.
# In the above ^1 HNMR measurement, Compound [40] was replaced by the commercially available AMPPD (3-(2'-spiroadamantan)-4-methoxy-4-(3"-phosphoryloxy)phenyl-1,2-dioxetane disodium salt), whereby the half-life of AMPPD at 60° C. was also calculated in the same manner as mentioned above.
# 1 mg of 3-t-butyl-4-methoxy-3-neopentyloxymethyl-4-(3'-phosphoryloxy)phenyl-1,2-dioxetane disodium salt (Compound [86]) synthesized in Example 66 was dissolved in methanol-d4 (0.35 ml), and the solution was heated at 60° C. in a thermostated bath, so that the solution was subjected to ^1 HNMR measurement at intervals of 2 to 3 hours.
# alkaline phosphatase [2] = experiment: Chemiluminescence with alkaline phosphatase in presence of quaternary ammonium salt (BDMG), Test Example 2-1 (FIG. 2); format: biochemical; conditions: 0.2 mg/ml, 0.1M diethanolamine/HCl buffer pH 10.0 with 0.4 mg/ml BDMG, 37° C.; versus AMPPD
# Experimental: 3-t-butyl-4-methoxy-3-neopentyloxymethyl-4-(3'-phosphoryloxy)phenyl-1,2-dioxetane disodium salt (Compound [86]) synthesized in Example 66 was dissolved in a 0.1M diethanolamine/hydrochloric acid buffer solution (pH 10.0 ) containing 0.4 mg/ml of quaternary ammonium salt (BDMG), 1 mM magnesium chloride and 0.05% sodium azide, in such an amount that the concentration of the dissolved Compound [86] was 0.2 mg/ml, and the solution was stirred.
# (§1) 300 μl of this solution was placed in a cartridge for assay and incubated for 90 minutes.
# After this incubation, 20 μl of an enzyme solution was added to the above solution, which enzyme solution was prepared by diluting an alkaline phosphatase solution for enzyme immunoassay (made by Boehringer Mannheim Co., Ltd.) (3 mg/0.3 ml) 154 times with a 50 mM Tris/cl buffer solution (pH 7.2) containing 0.15M sodium chloride, 1 mM magnesium chloride, 0.1 mM zinc chloride and 0.1% sodium azide.
# (§2) The luminescence of the above diluted enzyme solution was measured at 37° C. at regular time intervals.
# For comparison, the luminescence of a commercially available AMPPD (3-(2'-spiroadamantan)-4-methoxy-4-(3"-phosphoryloxy)phenyl-1,2-dioxetane disodium salt) was measured under the same conditions as mentioned above, by replacing the Compound [86] with AMPPD in accordance with the above-mentioned procedure.
# alkaline phosphatase [3] = experiment: Chemiluminescence with alkaline phosphatase, Test Example 1-1 (FIG. 1); format: biochemical; conditions: 0.2 mg/ml, 0.1M diethanolamine/HCl buffer pH 10.0, 37° C.; versus AMPPD
# Experimental: 3-isopropoxy-4,4-diisopropyl-3-(3'-phosphoryloxy)phenyl-1,2-dioxetane disodium salt (Compound [40]) synthesized in Example 26 was dissolved in a 0.1M diethanolamine/hydrochloric acid buffer solution (pH 10.0) containing 1 mM magnesium chloride and 0.05% sodium azide, in such an amount that the concentration of the dissolved Compound [40]) was 0.2 mg/ml, and the solution was stirred.
# as §1
# After this incubation, 20 μl of an enzyme solution was added to the above solution, which enzyme solution was prepared by diluting an alkaline phosphatase solution for enzyme immunoassay (made by Boehringer Mannheim Co., Ltd.) (3 mg/0.3 ml) 154 times and then 10^5 times with a 50 mM Tris/cl buffer solution (pH 7.2) containing 0.15M sodium chloride, 1 mM magnesium chloride, 0.1 mM zinc chloride and 0.1% sodium azide.
# as §2
# For comparison, the luminescence of a commercially available AMPPD (3-(2'-spiroadamantan)-4-methoxy-4-(3"-phosphoryloxy)phenyl-1,2-dioxetane disodium salt was measured under the same conditions as mentioned above, by replacing the Compound [40] with AMPPD in accordance with the above-mentioned procedure.
Structure (SMILES),half-life at 60° C. [1],thermal stability compared with AMPPD [1],chemiluminescence intensity compared with AMPPD (alkaline phosphatase [2]),chemiluminescence intensity compared with AMPPD (alkaline phosphatase [3])
"COC1(c2cccc(OP(=O)(O)O)c2)OOC1(COCC(C)(C)C)C(C)(C)C (stereo not shown) [Compound [86], 3-t-butyl-4-methoxy-3-neopentyloxymethyl-4-(3'-phosphoryloxy)phenyl-1,2-dioxetane disodium salt]",18.6 h,thermally more stable,higher intensity,
"CC(C)OC1(c2cccc(OP(=O)(O)O)c2)OOC1(C(C)C)C(C)C (stereo not shown) [Compound [40], 3-isopropoxy-4,4-diisopropyl-3-(3'-phosphoryloxy)phenyl-1,2-dioxetane disodium salt]",14.3 h,thermally more stable,,higher intensity
"COC1(c2cccc(OP(=O)(O)O)c2)OOC12C1CC3CC(C1)CC2C3 (stereo not shown) [AMPPD, 3-(2'-spiroadamantan)-4-methoxy-4-(3""-phosphoryloxy)phenyl-1,2-dioxetane disodium salt, reference compound]",5.5 h,,,
